Assay: Pharmacokinetics of SN-38 and SN-38G after i.v. dosing of SN-38 in 40% SBECD
Format: in vivo, Female Sprague-Dawley rats
Settings: rat, i.v.
Description: Female Sprague-Dawley rats, 4 animals per group received i.v. injections of SN-38 (doses 0.65 mg/kg and 2 mg/kg) in 40% SBECD. The SN-38 solution for the treatment was prepared by the dilution of concentrated composition of the Example 1 with water. The blood plasma samples were collected from each group of animals, extracted using liquid extraction with cold methanol/acetonitrile mixture (1:1 v/v), and analyzed using a HPLC method with fluorescent detection. The results, including levels of SN-38 and SN-38G in plasma and calculated values of area under the curve (AUC) for SN-38 and SN-38G are presented in Tables 5 and 6 below.

Compound `CCc1c2c(nc3ccc(O[C@@H]4O[C@H](C(=O)O)[C@@H](O)[C@H](O)[C@H]4O)cc13)-c1cc3c(c(=O)n1C2)COC(=O)[C@]3(O)CC` [SN-38G, SN-38 glucuronide] has an AUC (dosing SN-38 0.65 mg/kg in 40% SBECD) of 275 ng·h/mL, a Plasma levels (dosing SN-38 0.65 mg/kg in 40% SBECD, 0.17 h) of 266.5 ng/mL and a Plasma levels (dosing SN-38 0.65 mg/kg in 40% SBECD, 0.5 h) of 150.7 ng/mL. For the same compound, the Plasma levels (dosing SN-38 0.65 mg/kg in 40% SBECD, 0.75 h) was 97.1 ng/mL, the Plasma levels (dosing SN-38 0.65 mg/kg in 40% SBECD, 1 h) was 61.5 ng/mL and the Plasma levels (dosing SN-38 0.65 mg/kg in 40% SBECD, 3 h) was 15.7 ng/mL. It also gave a Plasma levels (dosing SN-38 0.65 mg/kg in 40% SBECD, 6 h) of 6.0 ng/mL, an AUC (dosing SN-38 2 mg/kg in 40% SBECD) of 1085 ng·h/mL and a Plasma levels (dosing SN-38 2 mg/kg in 40% SBECD, 0.17 h) of 1282.0 ng/mL. It also gave a Plasma levels (dosing SN-38 2 mg/kg in 40% SBECD, 0.5 h) of 747.7 ng/mL, a Plasma levels (dosing SN-38 2 mg/kg in 40% SBECD, 0.75 h) of 289.8 ng/mL and a Plasma levels (dosing SN-38 2 mg/kg in 40% SBECD, 1 h) of 239.9 ng/mL. For the same compound, the Plasma levels (dosing SN-38 2 mg/kg in 40% SBECD, 3 h) was 27.6 ng/mL and the Plasma levels (dosing SN-38 2 mg/kg in 40% SBECD, 6 h) was 18.5 ng/mL.
